Reference: ChEMBL document CHEMBL3044717, “Synthesis and QSAR modeling 1-[3-methyl-2-(aryldiazenyl)-2H-aziren-2-yl]ethanones as potential antibacterial agents” (2013)

How the values were obtained:
Format in all cases: functional
[1] = system: Staphylococcus aureus; assay: Antibacterial activity against Staphylococcus aureus ATCC 2943 assessed as growth inhibition after 16-24 hr by two-fold serial dilution method
[2] = system: Brevundimonas diminuta; assay: Antibacterial activity against Brevundimonas diminuta MTCC 3361 assessed as growth inhibition after 16-24 hr by two-fold serial dilution method
[3] = system: Escherichia coli; assay: Antibacterial activity against Escherichia coli ATCC 13607 assessed as growth inhibition after 16-24 hr by two-fold serial dilution method
[4] = system: Bacillus subtilis; assay: Antibacterial activity against Bacillus subtilis ATCC 6633 assessed as growth inhibition after 16-24 hr by two-fold serial dilution method

CC(=O)C1(/N=N/c2ccc([N+](=O)[O-])cc2)N=C1C (configuration not stated)
-logMIC [1]: 4.492 | -logMIC [2]: 4.287 | -logMIC [3]: 4.253 | -logMIC [4]: 4.221

CC(=O)C1(/N=N/c2ccccc2)N=C1C (configuration not stated)
-logMIC [1]: 4.032 | -logMIC [2]: 4.024 | -logMIC [4]: 4.026

CC(=O)C1(/N=N/c2ccccc2Cl)N=C1C (configuration not stated)
-logMIC [1]: 4.317 | -logMIC [2]: 4.354 | -logMIC [4]: 4.348

CC(=O)C1(/N=N/c2cccc(Cl)c2)N=C1C (configuration not stated)
-logMIC [1]: 4.324 | -logMIC [2]: 4.325 | -logMIC [4]: 4.315

CC(=O)C1(/N=N/c2ccc(Cl)cc2)N=C1C (configuration not stated)
-logMIC [1]: 4.014 | -logMIC [2]: 4.096 | -logMIC [4]: 4.078

COc1ccccc1/N=N/C1(C(C)=O)N=C1C (configuration not stated)
-logMIC [1]: 4.119 | -logMIC [2]: 4.072 | -logMIC [4]: 4.056

COc1cccc(/N=N/C2(C(C)=O)N=C2C)c1 (configuration not stated)
-logMIC [1]: 4.328 | -logMIC [2]: 4.377 | -logMIC [4]: 4.366

CC(=O)C1(/N=N/c2ccccc2C)N=C1C (configuration not stated)
-logMIC [1]: 4.339 | -logMIC [3]: 4.378 | -logMIC [4]: 4.378

CC(=O)C1(/N=N/c2cccc(C)c2)N=C1C (configuration not stated)
-logMIC [1]: 4.298 | -logMIC [4]: 4.213

CC(=O)C1(/N=N/c2ccc(C)cc2)N=C1C (configuration not stated)
-logMIC [1]: 4.178 | -logMIC [4]: 4.298

CC(=O)C1(/N=N/c2cccc(Br)c2)N=C1C (configuration not stated)
-logMIC [1]: 4.457 | -logMIC [3]: 4.441 | -logMIC [4]: 4.425

CC(=O)C1(/N=N/c2ccc(Br)cc2)N=C1C (configuration not stated)
-logMIC [1]: 4.433 | -logMIC [3]: 4.414 | -logMIC [4]: 4.401

CC(=O)C1(/N=N/c2cccc(C(=O)O)c2)N=C1C (configuration not stated)
-logMIC [1]: 4.178 | -logMIC [2]: 4.138 | -logMIC [3]: 4.223 | -logMIC [4]: 4.446

CC(=O)C1(/N=N/c2ccc(C(=O)O)cc2)N=C1C (configuration not stated)
-logMIC [1]: 4.358 | -logMIC [2]: 4.243 | -logMIC [3]: 4.341 | -logMIC [4]: 4.376

CC(=O)C1(/N=N/c2cccc([N+](=O)[O-])c2)N=C1C (configuration not stated)
-logMIC [1]: 4.421 | -logMIC [2]: 4.336 | -logMIC [3]: 4.257 | -logMIC [4]: 4.245
